The experiment in a line: Inhibitory activity against acetylcholinesterase in mice at the dose of 4.8 mg/kg via intraperitoneal administration.

The IC50 is the midpoint of a concentration-inhibition curve.

For the compound `CCCCCCCNC(=O)Oc1ccc2c(c1)[C@]1(C)CCN(C)[C@@H]1N2C` [(3aS,8aR)-1,3a,8-trimethyl-1H,2H,3H,3aH,8H,8aH-pyrrolo[2,3-b]indol-5-yl N-heptylcarbamate], the midpoint of inhibition, the IC50, lay at 148 nM.

Values taken from BindingDB's records for doi:10.1021/jm00039a013 (Pfizer, 1994).
